Series [1] is described as follows: Half life in rat liver […] S9 fraction at 5 uM in presence of NADPH by LC-MS/MS analysis. The class given is ADME, subcellular. (In general: Microsomes from liver hold many membrane-bound enzymes, among them those of drug oxidation.)
A short description of series [2]: Cytotoxicity against human Jurkat T cells assessed as cell survival at 10 uM measured after 3 days by MTT assay. The class given is toxicity, cell-based. Particulars: read-out: Survival. (In general: Tetrazolium assays rely on reduction of a dye to a coloured formazan, in cell work by metabolically active cells.)
Series [3] deals with Jurkat. Kind of series: Immunosuppressive activity in human PMA/ionomycin stimulated Jurkat T cells assessed as suppression of IL2 production pretreated with cells followed by PMA/ionomycin stimulation measured after 13 hrs by ELISA. The class given is functional, cell-based. (In general: An ELISA detects its analyte on a solid surface through an enzyme-linked reagent.)
The target of series [4] is T1, CYP2C9 (Homo sapiens, UniProt P11712). Briefly: Inhibition of recombinant human CYP2C9 expressed in baculosomes at 10 uM preincubated with protein prior to substrate addition measured after 40 mins in presence of NADP regeneration system by fluorimetric analysis. The series is classed as ADME.
Series [5] has as its target T2, Nuclear factor of activated T-cells, cytoplasmic 1 (Homo sapiens) (UniProt O95644).
T2 sequence (whole entry): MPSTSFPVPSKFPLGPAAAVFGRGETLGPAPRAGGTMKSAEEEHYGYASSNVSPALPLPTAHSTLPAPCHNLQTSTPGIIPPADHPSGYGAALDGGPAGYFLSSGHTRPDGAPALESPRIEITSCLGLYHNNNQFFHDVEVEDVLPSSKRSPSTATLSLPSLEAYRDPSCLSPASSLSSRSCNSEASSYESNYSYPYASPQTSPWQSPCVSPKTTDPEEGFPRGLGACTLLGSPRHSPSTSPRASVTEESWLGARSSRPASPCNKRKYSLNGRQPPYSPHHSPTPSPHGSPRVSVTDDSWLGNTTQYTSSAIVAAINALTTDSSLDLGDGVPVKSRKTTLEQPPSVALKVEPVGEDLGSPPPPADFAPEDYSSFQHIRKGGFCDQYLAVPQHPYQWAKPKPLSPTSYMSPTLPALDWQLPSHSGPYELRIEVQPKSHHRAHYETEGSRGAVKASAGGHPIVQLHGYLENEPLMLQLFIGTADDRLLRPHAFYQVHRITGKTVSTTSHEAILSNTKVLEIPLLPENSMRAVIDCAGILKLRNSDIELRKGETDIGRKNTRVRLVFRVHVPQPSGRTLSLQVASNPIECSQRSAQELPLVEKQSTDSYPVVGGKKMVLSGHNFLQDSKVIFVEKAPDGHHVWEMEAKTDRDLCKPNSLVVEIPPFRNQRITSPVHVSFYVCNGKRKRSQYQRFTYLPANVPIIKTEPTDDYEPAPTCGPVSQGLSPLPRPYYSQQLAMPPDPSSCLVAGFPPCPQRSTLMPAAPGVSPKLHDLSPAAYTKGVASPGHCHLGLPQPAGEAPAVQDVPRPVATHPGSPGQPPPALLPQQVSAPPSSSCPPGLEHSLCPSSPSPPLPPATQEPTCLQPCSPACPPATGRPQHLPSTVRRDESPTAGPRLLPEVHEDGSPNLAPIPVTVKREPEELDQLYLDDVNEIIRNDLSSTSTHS
Kind of series: Reduction in NFATc1 nuclear localization in human anti-CD3/anti-CD28 stimulated Jurkat T cells at 10 ug measured after 15 mins by SDS-PAGE and immunoblot analysis. The class given is cell-based.

Series [6] is described as follows: Half life in human liver S9 fraction at 5 uM in presence of NADPH by LC-MS/MS analysis. The class given is ADME, subcellular.
The target of series [7] is T3, Inhibitor of nuclear factor kappa-B kinase subunit beta (Homo sapiens) (UniProt O14920).
T3 sequence (whole entry): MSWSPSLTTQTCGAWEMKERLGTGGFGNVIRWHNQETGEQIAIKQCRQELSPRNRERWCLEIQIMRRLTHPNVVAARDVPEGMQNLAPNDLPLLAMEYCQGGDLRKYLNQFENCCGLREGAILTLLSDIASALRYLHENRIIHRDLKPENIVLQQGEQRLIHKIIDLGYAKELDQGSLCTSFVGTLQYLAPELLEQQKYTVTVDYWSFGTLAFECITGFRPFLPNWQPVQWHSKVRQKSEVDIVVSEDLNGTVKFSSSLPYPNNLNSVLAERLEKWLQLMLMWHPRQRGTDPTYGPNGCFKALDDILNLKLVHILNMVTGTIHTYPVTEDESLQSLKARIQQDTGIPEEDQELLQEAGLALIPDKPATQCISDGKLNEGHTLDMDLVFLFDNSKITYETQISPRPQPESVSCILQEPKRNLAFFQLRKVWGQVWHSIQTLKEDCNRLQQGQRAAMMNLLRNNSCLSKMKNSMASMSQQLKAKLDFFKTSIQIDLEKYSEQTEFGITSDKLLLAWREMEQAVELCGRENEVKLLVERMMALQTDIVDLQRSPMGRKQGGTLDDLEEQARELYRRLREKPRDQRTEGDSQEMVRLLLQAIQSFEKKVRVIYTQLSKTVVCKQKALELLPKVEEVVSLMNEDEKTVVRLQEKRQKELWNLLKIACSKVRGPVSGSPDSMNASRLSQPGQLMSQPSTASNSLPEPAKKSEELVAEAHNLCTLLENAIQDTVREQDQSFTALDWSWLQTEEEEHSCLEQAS
Briefly: Inhibition of recombinant full length human N-terminal His6-tagged IKKbeta expressed in baculovirus infected sf21 cells at 10 uM using IKKtide as substrate after 40 mins in presence of [gamma33P]ATP by scintillation counting method relative to control.

Series [8] is described as follows: Half life in mouse liver […] S9 fraction at 5 uM in presence of NADPH by LC-MS/MS analysis. The series is classed as ADME, subcellular.
Series [9] relates to Jurkat. Briefly: Inhibition of NFkappaB activation in human anti-CD3/anti-CD28 stimulated Jurkat T cells at 10 uM measured by renilla luciferase reporter gene assay relative to control. The series is classed as cell-based.
The target in series [10] is T1, CYP2C9. Kind of series: Inhibition of recombinant human CYP2C9 expressed in baculosomes at 1 uM preincubated with protein prior to substrate addition measured after 40 mins in presence of NADP regeneration system by fluorimetric analysis. The class given is ADME.
The test system of series [11] is Jurkat. Briefly: Immunosuppressive activity in human anti-CD3/anti-CD28 stimulated Jurkat T cells assessed as suppression of IL2 production at 10 uM pretreated with cells followed by anti-CD3/CD28 stimulation measured after 13 hrs by ELISA. The class given is functional.
Series [12] addresses T4, NF-kappa-B inhibitor alpha (Homo sapiens) (UniProt P25963).
T4 sequence (whole entry): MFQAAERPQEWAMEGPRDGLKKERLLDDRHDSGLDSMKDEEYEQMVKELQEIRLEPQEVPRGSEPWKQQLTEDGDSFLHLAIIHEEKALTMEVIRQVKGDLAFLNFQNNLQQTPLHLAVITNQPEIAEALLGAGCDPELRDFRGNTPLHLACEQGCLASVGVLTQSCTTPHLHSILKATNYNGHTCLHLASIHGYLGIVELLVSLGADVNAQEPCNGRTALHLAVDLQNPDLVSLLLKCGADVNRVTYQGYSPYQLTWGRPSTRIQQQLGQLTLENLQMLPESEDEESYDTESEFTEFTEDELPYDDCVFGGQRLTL
Kind of series: Inhibition of IkappaBalpha phosphorylation in human anti-CD3/anti-CD28 stimulated Jurkat T cells at 10 uM pretreated with cells followed by anti-CD3/anti-CD28 stimulation measured up to 60 mins immunoblot analysis. The series is classed as cell-based.

Molecules are shown by their SMILES. Activity calls are given as the source filed them. The calls are words filed in the database; no cut-off is given here.

T1 sequence (P11712 whole entry): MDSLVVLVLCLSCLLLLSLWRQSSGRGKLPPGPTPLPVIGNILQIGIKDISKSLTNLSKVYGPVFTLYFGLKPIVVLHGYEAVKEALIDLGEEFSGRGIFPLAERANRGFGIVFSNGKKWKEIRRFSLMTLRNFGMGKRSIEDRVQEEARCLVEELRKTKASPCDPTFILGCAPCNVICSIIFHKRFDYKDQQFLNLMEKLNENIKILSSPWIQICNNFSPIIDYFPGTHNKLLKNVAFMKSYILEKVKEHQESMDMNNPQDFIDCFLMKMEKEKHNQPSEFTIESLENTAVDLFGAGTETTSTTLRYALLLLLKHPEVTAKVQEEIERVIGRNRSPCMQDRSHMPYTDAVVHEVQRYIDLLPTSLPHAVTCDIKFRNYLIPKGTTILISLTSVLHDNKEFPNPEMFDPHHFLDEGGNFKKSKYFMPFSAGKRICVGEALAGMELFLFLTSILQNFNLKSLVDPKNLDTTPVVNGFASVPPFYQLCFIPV

Broadly, the half-life is the time in which the quantity being followed falls by half. In general, IC50 refers to the point on the concentration scale where inhibition reaches its midpoint. In general, inhibition refers to the share of the control response that was lost under treatment. Turning to `CC(C)c1ccc(Cn2c(=O)c(C(=O)NCCc3ccccc3)cc3c([N+](=O)[O-])cccc32)cc1`, the half-life at 5 µM in [1], in series [6] and in series [8] was 7 min each time. Besides, the viability at 72 h, 10 µM in series [2] worked out at 93%. In addition, the half-inhibitory concentration (IC50) with Jurkat [3] worked out at 80 nM. Further, the inhibition at 40 min, 10 µM at CYP2C9 [4] was found to be 65%. Besides, the inhibition entry (in series [5]; with Jurkat [9]; in [12]) was “Active” each time. Moreover, in series [7], the inhibition came to 29%. Also, at CYP2C9 [10], the inhibition at 40 min, 1 µM worked out at 30%. In addition, the inhibition at 10 µM with Jurkat [11] is 83%.

These data come from ChEMBL document CHEMBL3860071, “Discovery and structure-activity relationship studies of quinolinone derivatives as potent IL-2 suppressive agents” (Bioorg Med Chem, 2016).
